These are literature values, as cited in patent US20250009687A1, “COMPOSITIONS AND METHODS USING A COMBINATION OF NUTRIENTS TO SUPPORT COGNITION AND EMOTIONAL HEALTH IN A MAMMAL” (SOCIETE DES PRODUITS NESTLE S.A., priority 2021, published 2025).

For this data set, the system named is TFEB. The settings on record: Fu X. et al., Experimental Neurology 2021.

Molecules are shown by their SMILES.

For the compound `C[C@@H]1O[C@@H](O[C@H]2[C@H](O[C@H]3C[C@]4(C)[C@H](C[C@@H](O)[C@@H]5[C@@H]([C@]6(C)CC[C@H](C(C)(C)O)O6)CC[C@]54C)[C@@]4(C)CC[C@H](O)C(C)(C)[C@H]34)O[C@H](CO)[C@@H](O)[C@@H]2O)[C@H](O)[C@H](O)[C@H]1O` [PF11], the neuroprotection result is reported as “neuroprotective”. Besides, for the setting “acting through TFEB”, the “Lamp1 and Ctsd mRNA” value is on record as “increase”.
